Counter-ions that a name gives are not always drawn. Like-named read-outs stand apart in the source and are kept apart here.
What was measured:
PDE4 = PDE4 (Homo sapiens, UniProt Q08499); experiment: In-vitro assay for PDE4 enzymes, real-time enzyme-coupled spectrophotometric assay (Table 9); format: biochemical
PDE4B = PDE4B (Homo sapiens, UniProt Q07343); experiment: In-vitro assay for PDE4 enzymes, real-time enzyme-coupled spectrophotometric assay, PDE4B Activity (Table 10); format: biochemical
[1] = human PDE4D, activity class, Table 9, read-out: hPDE4D
[2] = human PDE4B (hPDE4B), enzyme-coupled spectrophotometric assay, read-out: PDE4B Activity, hPDE4B

Sequence of PDE4 (Q08499 whole entry): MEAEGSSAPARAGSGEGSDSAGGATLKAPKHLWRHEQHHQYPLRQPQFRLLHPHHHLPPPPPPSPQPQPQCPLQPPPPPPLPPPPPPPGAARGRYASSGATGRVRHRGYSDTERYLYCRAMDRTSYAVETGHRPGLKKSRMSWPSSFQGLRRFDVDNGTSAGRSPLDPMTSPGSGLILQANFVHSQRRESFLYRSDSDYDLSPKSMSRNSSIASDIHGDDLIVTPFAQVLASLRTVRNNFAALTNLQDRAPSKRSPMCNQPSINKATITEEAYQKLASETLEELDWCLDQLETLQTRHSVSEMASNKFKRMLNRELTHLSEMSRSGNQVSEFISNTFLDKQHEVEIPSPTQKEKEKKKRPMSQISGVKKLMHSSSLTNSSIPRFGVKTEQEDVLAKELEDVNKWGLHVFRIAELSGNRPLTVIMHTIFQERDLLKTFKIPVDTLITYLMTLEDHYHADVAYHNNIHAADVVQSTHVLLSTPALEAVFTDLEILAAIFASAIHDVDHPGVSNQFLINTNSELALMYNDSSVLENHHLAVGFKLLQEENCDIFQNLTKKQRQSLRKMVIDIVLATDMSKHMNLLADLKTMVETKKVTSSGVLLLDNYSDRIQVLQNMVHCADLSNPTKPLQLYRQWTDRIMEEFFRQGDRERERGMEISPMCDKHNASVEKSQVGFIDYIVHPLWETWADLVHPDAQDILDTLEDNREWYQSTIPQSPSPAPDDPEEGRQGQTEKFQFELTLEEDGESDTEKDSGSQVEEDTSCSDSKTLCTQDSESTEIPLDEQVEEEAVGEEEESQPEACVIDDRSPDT
Sequence of PDE4B (Q07343 whole entry): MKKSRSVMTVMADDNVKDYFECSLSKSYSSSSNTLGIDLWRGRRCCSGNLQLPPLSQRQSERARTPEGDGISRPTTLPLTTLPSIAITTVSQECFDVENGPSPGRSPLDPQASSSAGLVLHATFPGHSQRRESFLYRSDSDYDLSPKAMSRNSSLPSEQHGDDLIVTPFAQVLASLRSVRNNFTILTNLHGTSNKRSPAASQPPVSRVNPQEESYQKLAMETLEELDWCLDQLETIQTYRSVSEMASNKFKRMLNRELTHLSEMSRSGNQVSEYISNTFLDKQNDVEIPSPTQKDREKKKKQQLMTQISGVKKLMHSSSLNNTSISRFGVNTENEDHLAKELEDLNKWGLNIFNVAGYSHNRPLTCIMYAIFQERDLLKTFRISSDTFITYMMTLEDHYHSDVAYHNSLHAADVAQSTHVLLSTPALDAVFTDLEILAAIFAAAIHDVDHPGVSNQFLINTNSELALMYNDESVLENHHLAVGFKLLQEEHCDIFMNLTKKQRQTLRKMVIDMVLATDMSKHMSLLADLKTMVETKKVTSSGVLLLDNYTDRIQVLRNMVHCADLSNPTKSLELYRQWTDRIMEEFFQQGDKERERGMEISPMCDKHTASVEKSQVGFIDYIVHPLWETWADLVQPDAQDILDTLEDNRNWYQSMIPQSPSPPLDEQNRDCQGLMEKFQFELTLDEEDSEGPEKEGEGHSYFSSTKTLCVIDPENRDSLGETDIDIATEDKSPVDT

Row | IC50 (PDE4; [1]) [µM] | IC50 (PDE4B; [2]) [µM] | Structure (SMILES) | IC50 (PDE4) [µM] | IC50 (PDE4B) [µM]
1 | < 5 | < 5 | COc1ccc(Cn2cncc2C(N)=O)c(F)c1-c1cccc(Cl)c1 [P-535, 3-(3′-Chloro-2-fluoro-6-methoxy-biphenyl-3-ylmethyl)-3H-imidazole-4-carboxylic acid amide] | – | –
2 | 5 to 20 | 21 to 40 | COc1ccc(CN2C(=O)CCC2=O)cc1-c1ccc2c(c1)OCO2 [P-053, 1-(3-Benzo[1,3]dioxol-5-yl-4-methoxy-benzyl)-pyrrolidine-2,5-dione] | – | –
3 | < 5 | < 5 | COc1ccc(Cc2ccc(NC(N)=O)cc2)c(F)c1-c1cccc(C(C)=O)c1 [P-269, [4-(3′-Acetyl-2-fluoro-6-methoxy-biphenyl-3-ylmethyl)-phenyl]urea] | – | –
4 | 5 to 20 | 5 to 20 | COc1ccc(Cn2ccccc2=O)cc1-c1cccc(C(C)=O)c1 [P-179, 1-(3′-Acetyl-6-methoxy-biphenyl-3-ylmethyl)-1H-pyridin-2-one] | – | –
5 | < 5 | 5 to 20 | COc1ccc(Cc2ccc3cnc(C(N)=O)n3c2)c(F)c1-c1cccc(Cl)c1 [P-445, 6-(3′-chloro-2-fluoro-6-methoxy-biphenyl-3-ylmethyl)-imidazo[1,5-a]pyridine-3-carboxylic acid amide] | – | –
6 | < 5 | < 5 | O=[N+]([O-])c1cccc(-c2cc(Cc3ccc(F)cc3)ccc2OC(F)F)c1 [P-067, 2-Difluoromethoxy-5-(4-fluoro-benzyl)-3′-nitro-biphenyl] | – | –
7 | < 5 | < 5 | CCOc1ccc(Cc2ccc(OC)c(-c3cccc(Cl)c3)c2F)s1 [P-310, 2-(3′-Chloro-2-fluoro-6-methoxy-biphenyl-3-ylmethyl)-5-ethoxythiophene] | – | –
8 | < 5 | < 5 | CCNC(=O)Nc1ccc(Sc2ccc(OC)c(-c3cccc(Cl)c3)c2)cc1 [P-448, 1-[4-(3′-Chloro-6-methoxy-biphenyl-3-ylsulfanyl)-phenyl]-3-ethyl urea] | – | –
9 | < 5 | < 5 | COc1ccc(Cc2cnc(O[C@@H]3CCN(C)C3)nc2)c(F)c1-c1cccc(Cl)c1 [P-406, 5-(3′-Chloro-2-fluoro-6-methoxy-biphenyl-3-ylmethyl)-2-((R)-1-methyl-pyrrolidin-3-yloxy)-pyrimidine] | – | –
10 | < 5 | < 5 | COc1ccc(Oc2ccc(N)cc2)c(F)c1-c1cccc(C(C)=O)c1 [P-283, 4-(3′-Acetyl-2-fluoro-6-methoxy-biphenyl-3-yloxy)-phenyl-amine hydrochloride salt] | – | –
11 | 20 to 40 | 21 to 40 | NCCOc1ccc(Cc2ccc(NC(N)=O)cc2)cc1-c1cccc(Cl)c1 [P-542, {4-[6-(2-Amino-ethoxy)-3′-chloro-biphenyl-3-ylmethyl]-phenyl}-urea] | – | –
12 | < 5 | < 5 | COc1ccc(Cc2ccc(CNC(=O)C(N)=O)nc2)c(F)c1-c1cccc(Cl)c1 [P-521, N-[5-(3′-Chloro-2-fluoro-6-methoxy-biphenyl-3-ylmethyl)-pyridin-2-ylmethyl]-oxalamide] | – | –
13 | < 5 | < 5 | COc1ccc(Cc2ccc(NC(=O)NC3CCCO3)cc2)cc1-c1cccc(Cl)c1 (stereo not shown) [P-566, 1-[4-(3′-Chloro-6-methoxy-biphenyl-3-ylmethyl)-phenyl]-3-(tetrahydro-furan-2-yl)-urea] | – | –
14 | < 5 | < 5 | COc1ccc(Cc2ccc(S(N)(=O)=O)cc2)c(F)c1-c1cccc(C(C)=O)c1 [P-304] | – | –
15 | < 5 | < 5 | COc1ccc(Cc2ccc(N)cc2)c(F)c1-c1cccc(C(C)=O)c1 [P-261, 1-[3′-(4-Amino-benzyl)-2′-fluoro-6′-methoxy-biphenyl-3-yl]-ethanone; hydrochloride] | – | –
16 | < 5 | 21 to 40 | COc1ccc(C(C)(O)c2ccc(NC(C)=O)cc2)c(F)c1-c1cccc(Cl)c1 (racemic) [P-530, N-{4-[1-(3′-Chloro-2-fluoro-6-methoxy-biphenyl-3-yl)-1-hydroxy-ethyl]-phenyl}-acetamide] | – | –
17 | < 5 | < 5 | COc1ccc(C(=O)c2ccc(N)cc2)cc1-c1ccc2c(c1)OCCO2 [P-578] | – | –
18 | < 5 | < 5 | COc1ccc(COc2ccnc(Cl)c2)c(F)c1-c1cccc(Cl)c1 [P-604] | – | –
19 | < 5 | < 5 | [2H]C([2H])(c1ccc(NC(N)=O)cc1)c1ccc(OC)c(-c2cccc(Cl)c2)c1F [P-532, {4-[(3′-Chloro-2-fluoro-6-methoxy-biphenyl-3-yl)-bisduetero-methyl]-phenyl}-urea] | – | –
20 | < 5 | < 5 | COc1ccc(CC2CCCS2)c(F)c1-c1cccc([N+](=O)[O-])c1 (stereo not shown) [P-128, 2-(2-fluoro-6-methoxy-3′-nitro-biphenyl-3-ylmethyl)-tetrahydro-thiophene] | – | –
21 | 5 to 20 | 5 to 20 | COc1ccc(CN2CCNC2=O)nc1-c1cccc([N+](=O)[O-])c1 [P-033, 1-[5-methoxy-6-(3-nitro-phenyl)-pyridin-2-ylmethyl]-imidazolidin-2-one] | – | –
22 | < 5 | 5 to 20 | COc1ccc(Cc2ccc(CN)c(F)c2)c(F)c1-c1cccc(Cl)c1 [P-275] | – | –
23 | < 5 | < 5 | Nc1ccc(Cc2ccc(OC3COC3)c(-c3cccc(Cl)c3)c2)cc1 [P-562, 4-[3′-Chloro-6-(oxetan-3-yloxy)-biphenyl-3-ylmethyl]-phenylamine] | – | –
24 | 5 to 20 | < 5 | COc1ccc(COc2ccc([N+](=O)[O-])cc2)c(F)c1-c1cccc(Cl)c1 [P-575] | – | –
25 | < 5 | < 5 | COc1ccc(Cn2ccnc2)cc1-c1ccc2nonc2c1 [P-006, 5-(5-Imidazol-1-ylmethyl-2-methoxy-phenyl)-benzo[1,2,5]oxadiazole] | – | –

More lines, now with the values behind:

Row | Structure (SMILES) | IC50 (PDE4; [1]) [µM] | IC50 (PDE4B; [2]) [µM] | IC50 (PDE4) [µM] | IC50 (PDE4B) [µM]
26 | COc1ccc(Cn2ccccc2=O)cc1-c1cccc([N+](=O)[O-])c1 [P-104, 1-(6-Methoxy-3′-nitro-biphenyl-3-ylmethyl)-1H-pyridin-2-one] | < 5 | < 5 | – | –
27 | COc1ccc(Cc2ccnc(N3CCN(C(N)=O)CC3)c2)c(F)c1-c1cccc(Cl)c1 [P-518, 4-[4-(3′-Chloro-2-fluoro-6-methoxy-biphenyl-3-ylmethyl)-pyridin-2-yl]-piperazine-1-carboxylic acid amide] | < 5 | < 5 | – | –
28 | COc1ccc(Cc2ccc(F)cc2)c(N)c1-c1cccc([N+](=O)[O-])c1 [P-176, 3-(4-fluoro-benzyl)-6-methoxy-3′-nitro-biphenyl-2-ylamine] | < 5 | < 5 | – | –
29 | CCNC(=O)Nc1ccc(Cc2ccc(OC)c(-c3cccc(C#N)c3)c2F)cn1 [P-405, 1-[5-(3′-Cyano-2-fluoro-6-methoxy-biphenyl-3-ylmethyl)-pyridin-2-yl]-3-ethyl-urea hydrochloride salt] | < 5 | < 5 | – | –
30 | COc1ccc(Cc2ccc(=O)[nH]n2)cc1-c1cccc([N+](=O)[O-])c1 [P-009, 6-(6-Methoxy-3′-nitro-biphenyl-3-ylmethyl)-2H-pyridazin-3-one] | < 5 | < 5 | – | –
31 | COc1ccc(Cc2ccc(NC(C)=O)cc2)cc1-c1cccc([N+](=O)[O-])c1 [P-114] | < 5 | < 5 | – | –
32 | COc1ccc(Cc2ccc(CN)c(O)c2)c(F)c1-c1cccc(Cl)c1 [P-296] | < 5 | 21 to 40 | – | –
33 | COc1ccc(Cc2ccc(N3CCC3C(N)=O)nc2)c(F)c1-c1cccc(Cl)c1 (stereo not shown) [P-571, 1-[5-(3′-chloro-2-fluoro-6-methoxy-biphenyl-3-ylmethyl)-pyridin-2-yl]-azetidine-2-carboxylic acid amide] | < 5 | < 5 | – | –
34 | COc1ccc(C2(c3ccc(F)cc3)CCN(C)CC2)cc1-c1cccc(Cl)c1 [P-564, 4-(3′-Chloro-6-methoxy-biphenyl-3-yl)-4-(4-fluoro-phenyl)-1-methyl-piperidine] | 5 to 20 | 21 to 40 | – | –
35 | COc1ccc(Cc2ccc(N3CCOC3=O)nc2)c(F)c1-c1cccc(Cl)c1 [P-469, 3-[5-(3′-Chloro-2-fluoro-6-methoxy-biphenyl-3-ylmethyl)-pyridin-2-yl]-oxazolidin-2-one] | < 5 | < 5 | – | –
36 | COc1ccc(Cc2ccc(OC(N)=O)cc2)c(F)c1-c1cccc(Cl)c1 [P-221] | – | – | < 5 | < 5
37 | COc1ccc(C(O)c2ccc(F)cc2)cc1-c1cccc(-c2nnco2)c1 (stereo not shown) [P-117, (4-Fluoro-phenyl)-(6-methoxy-3′-[1,3,4]oxadiazol-2-yl-biphenyl-3-yl)-methanol] | < 5 | 21 to 40 | – | –
38 | CCNC(=O)Nc1ccc(Cc2ccc(OC)c(-c3cccc(-c4nnn[nH]4)c3)c2F)cn1 [P-513, 1-Ethyl-3-{5-[2-fluoro-6-methoxy-3′-(1H-tetrazol-5-yl)-biphenyl-3-ylmethyl]-pyridin-2-yl}-urea] | 5 to 20 | 21 to 40 | – | –
39 | COc1ccc(Cc2ccc3[nH]c(=O)oc3c2)c(F)c1-c1cccc(Cl)c1 [P-263] | < 5 | < 5 | – | –
40 | COc1ccc(Cc2ccc(N3CCN(C(N)=O)CC3)nc2)c(F)c1-c1cccc(Cl)c1 [P-432] | < 5 | < 5 | – | –
41 | COc1ccc(COC(C)C)nc1-c1cccc([N+](=O)[O-])c1 [P-030, 6-isopropoxymethyl-3-methoxy-2-(3-nitro-phenyl)-pyridine] | 5 to 20 | 21 to 40 | – | –
42 | COc1ccc(CN2CC[C@@H](O)C2)cc1-c1cccc([N+](=O)[O-])c1 [P-071, (R)-1-(6-Methoxy-3′-nitro-biphenyl-3-ylmethyl)-pyrrolidin-3-01] | < 5 | 21 to 40 | – | –
43 | COc1ccc(Cc2c(C)nn(CC(N)=O)c2C)cc1-c1cccc([N+](=O)[O-])c1 [P-101, 2-[4-(6-Methoxy-3′-nitro-biphenyl-3-ylmethyl)-3,5-dimethyl-pyrazol-1-yl]-acetamide] | < 5 | < 5 | – | –
44 | COc1ccc(Cc2ccc(NC(N)=O)cc2)nc1-c1cccc(Cl)c1 [P-376, {4-[6-(3-chloro-phenyl)-5-methoxy-pyridin-2-ylmethyl]-phenyl}-urea] | < 5 | < 5 | – | –

Source: patent US8791267B2, “Biaryl PDE4 inhibitors for treating inflammatory, cardiovascular and CNS disorders” (Decode Genetics EHF, priority 2007, dated 2014)
